Molecules are shown by their SMILES. A value given as a limit tells only on which side of the number the result lay.

For the experiment, the target named is T1, human IDO1/HEK293 cells (Homo sapiens, UniProt P14902).
T1 construct: expressed in transfected cells
Put plainly: HEK Human IDO-1 cell-based IDO inhibition assay (kynurenine production). Conditions: HEK293 cells stably expressing human IDO1, 20 hours incubation, absorbance at 490 nm; read-out: HEK Human IDO-1 Bio Activity (IDO IC50). The method, then:
They were cultured in medium (DMEM with 10% FBS) containing 1 mg/ml G418 for two weeks.
The human IDO1/HEK293 cells were seeded at 10,000 cells per 50 μL per well with RPMI/phenol red free media contains 10% FBS in a 384-well black wall clear bottom tissue culture plate (Matrix Technologies LLC) 100 nL of certain concentration of compound was then added to each well using ECHO liquid handling systems. The cells were incubated for 20 hours in 37° C. incubator with 5% CO2.
The compound treatments were stopped by adding trichloroacetic acid (Sigma-Aldrich) to a final concentration at 0.2%. The cell plate was further incubated at 50° C. for 30 minute. The equal volume supernatant (20 μL) and 0.2% (w/v) Ehrlich reagent (4-dimethylaminobenzaldehyde, Sigma-Aldrich) in glacial acetic acid were mixed in a new clear bottom 384-well plate. This plate was then incubated at room temperature for 30 minute. The absorbance at 490 nm was measured on Envision plate reader.

T1 sequence (P14902 whole entry): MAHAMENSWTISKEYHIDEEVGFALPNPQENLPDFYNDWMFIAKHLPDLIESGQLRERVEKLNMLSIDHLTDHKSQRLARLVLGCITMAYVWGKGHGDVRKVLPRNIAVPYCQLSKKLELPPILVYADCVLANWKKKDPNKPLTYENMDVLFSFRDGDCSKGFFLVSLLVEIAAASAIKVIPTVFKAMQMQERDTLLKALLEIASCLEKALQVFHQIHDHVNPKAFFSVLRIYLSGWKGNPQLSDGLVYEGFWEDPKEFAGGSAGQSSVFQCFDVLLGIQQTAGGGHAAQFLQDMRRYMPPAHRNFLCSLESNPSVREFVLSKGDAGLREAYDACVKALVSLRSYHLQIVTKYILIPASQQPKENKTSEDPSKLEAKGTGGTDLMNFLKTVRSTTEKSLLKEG

Broadly, the IC50 is the point on the concentration scale where inhibition reaches its midpoint. With `O=C(Nc1ccc(Cl)cc1)[C@H]1CC[C@@H](c2ccnc3ccc(F)cc32)CC1` [Example 76, (cis)-N-(4-Chlorophenyl)-4-(6-fluoroquinolin-4-yl)cyclohexanecarboxamide], the IC50 is under 2000 nM. With `CCC(NC(=O)c1ccc(Cl)cc1)[C@H]1CC[C@@H](Oc2ccnc3ccccc23)CC1` (stereo partly drawn) [Example 80, 4-Chloro-N-(1-(cis-4-(quinolin-4-yloxy)cyclohexyl)propyl)benzamide] the figure was under 2000 nM. With `O=C(Nc1ccc(-c2ccccc2)cc1)N1CCN(c2ccnc3ccc(F)cc23)CC1` [Example 84, N-([1,1′-Biphenyl]-4-yl)-4-(6-fluoroquinolin-4-yl)piperazine-1-carboxamide] the figure was under 2000 nM; with `Cc1ccc(C(=O)NCC2CCN(c3ccnc4ccc(F)cc34)CC2)cc1` [Example 86, N-((1-(6-Fluoroquinolin-4-yl)piperidin-4-yl)methyl)-4-methylbenzamide], under 250 nM; with `O=C(NCC1CCN(c2ccnc3ccc(F)cc23)CC1)c1ccc(Cl)c(Cl)c1` [Example 87, 3,4-Dichloro-N-((1-(6-fluoroquinolin-4-yl)piperidin-4-yl)methyl)benzamide], under 250 nM. With `O=C(NCC1CCN(c2ccnc3ccc(F)cc23)CC1)c1ccc(Cl)cc1` [Example 88] the figure was under 2000 nM; with `O=C(NCC1CCN(c2ccnc3ccc(F)cc23)CC1)c1ccc(F)cc1` [Example 89], under 250 nM. Consider `O=C(NCC1CCN(c2ccnc3ccc(F)cc23)CC1)c1cccc(Cl)c1` [Example 90], for which the IC50 was under 2000 nM. With `Cc1ccc(NC(=O)NC2CCN(c3ccnc4ccc(F)cc34)CC2)cc1` [Example 91, 1-(1-(6-Fluoroquinolin-4-yl)piperidin-4-yl)-3-(p-tolyl)urea] the figure was under 250 nM. On to `O=C(Nc1ccc(Cl)cc1F)NC1CCN(c2ccnc3ccc(F)cc23)CC1` [Example 92, 1-(4-Chloro-2-fluorophenyl)-3-(1-(6-fluoroquinolin-4-yl)piperidin-4-yl)urea], for which the IC50 was under 2000 nM. With `O=C(Nc1ccc(F)cc1)NC1CCN(c2ccnc3ccc(F)cc23)CC1` [Example 93, 1-(4-Fluorophenyl)-3-(1-(6-fluoroquinolin-4-yl)piperidin-4-yl)urea] the figure was under 2000 nM. With `COc1ccc(CN[C@H]2CC[C@H](c3ccccc3)CC2)cc1` [Example 97, trans-N-(4-Methoxybenzyl)-4-phenylcyclohexanamine] the figure was under 250 nM. With `O=C(Nc1ccc(Cl)cc1)N[C@H]1CC[C@H](c2ccnc3ccc(F)cc32)CC1` [Example 119, 1-(4-Chlorophenyl)-3-(trans-4-(6-fluoroquinolin-4-yl)cyclohexyl)urea] the figure was under 50 nM; with `O=C(Nc1ccc(Cl)cc1F)N[C@H]1CC[C@H](c2ccnc3ccc(F)cc32)CC1` [Example 120, 1-(4-chloro-2-fluorophenyl)-3-(trans-4-(6-fluoroquinolin-4-yl)cyclohexyl)urea], under 50 nM; with `O=C(Nc1ccc(F)cc1F)N[C@H]1CC[C@H](c2ccnc3ccc(F)cc32)CC1` [Example 122, 1-(2,4-difluorophenyl)-3-(trans-4-(6-fluoroquinolin-4-yl)cyclohexyl)urea], under 250 nM.

`O=C(Nc1ccc(F)c(F)c1)N[C@H]1CC[C@H](c2ccnc3ccc(F)cc32)CC1` [Example 123, 1-(3,4-difluorophenyl)-3-(trans-4-(6-fluoroquinolin-4-yl)cyclohexyl)urea]: the 50% inhibitory concentration (IC50) was under 250 nM.

With `O=C(Nc1ccc(F)cc1)N[C@H]1CC[C@H](c2ccnc3ccc(F)cc32)CC1` [Example 124, 1-(4-fluorophenyl)-3-(trans-4-(6-fluoroquinolin-4-yl)cyclohexyl)urea], the concentration for half-maximal inhibition (IC50) was under 50 nM.

Consider `O=C(Nc1ccc(Cl)cc1)N[C@H]1CC[C@@H](c2ccnc3ccc(F)cc32)CC1` [Example 125, 1-(4-Chlorophenyl)-3-(cis-4-(6-fluoroquinolin-4-yl)cyclohexyl)urea], for which the IC50 was under 250 nM.
